# Patent US11884750B2, “Cationic cell penetrating peptides and the use thereof” (CELLTROY CO., LTD., priority 2021, dated 2024)
# What was measured:
# macrophages = assay: Cell penetration efficiency using macrophages; type: cell-based; conditions: macrophages differentiated from THP1 cells, 4 μM FITC-conjugated CPP, one hour
# Experimental: (§1) Subsequently, to confirm whether the CPPs according to the present invention show excellent cell permeability into different types of cells/tissues, various tissue-derived cells were treated with biologically active molecule-conjugated CPPs to compare its delivery capacity with TAT. As in the previous examples, each cell was aliquoted in a plate at an appropriate density, and cultured in a 10% FBS-added medium under a condition of 37° C. and 5% CO2 for 24 hours. Subsequently, the cells were treated with 4 μM each of FITC-conjugated CPP or FITC-conjugated TAT and incubated for one hour. After the completion of the incubation, the cells were transferred to a sterile tube using 0.25% trypsin and centrifuged to remove the medium. Afterward, the cells were washed with 500 μL of D-PBS twice to completely remove the medium, and finally, resuspended in 400 μL of D-PBS and intracellular fluorescence was measured by flow cytometry (FACSCanto II). Macrophages were used by inducing differentiation from THP1 cells. Specifically, the THP-1 cells were aliquoted on a cover glass laid on a 24-well plate to have a density of 6×10^4 cells/well, and after the addition of 100 ng/mL of phorbol 12-myristate 13-acetate (PMA), the cells were incubated for 48 hours to induce the differentiation into macrophages. After 48 hours, the cells were washed with Dulbecco's phosphate buffered saline (DPBS) to perform an experiment.
# HT1080 cell line = assay: Cell penetration efficiency using connective tissue (fibrosarcoma) cells; type: cell-based; conditions: 4 μM FITC-conjugated CPP, one hour
# In short: (§2)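 Cells grown 24 h at 37 °C, 5% CO2 in medium with 10% FBS, then exposed 1 h to 4 μM FITC-conjugated CPP or FITC-conjugated TAT. After trypsin detachment and two D-PBS washes, intracellular fluorescence was measured by flow cytometry.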
# A-427 cell line = assay: Cell penetration efficiency using lung cells; type: cell-based; conditions: A-427 lung cells, 4 μM FITC-conjugated CPP, one hour
# In short: as §2
# SH-SY5Y cells = assay: Cell penetration efficiency in human neuroblastoma cells, 4 μM, flow cytometry; type: cell-based; conditions: one hour; for cell permeability compared with TAT: 4 μM FITC-conjugated CPP, flow cytometry; for Score / Score/TAT: 4 μM FITC-conjugated peptide; for Score: intracellular fluorescence by flow cytometry; for Score/TAT: ratio to FITC-conjugated TAT
# In short: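 SH-SY5Y cells cultured 24 h in DMEM/10% FBS at 37 °C, 5% CO2, then exposed to 4 μM FITC-conjugated peptide (FITC-TAT as reference) for 1 h. After trypsinisation and D-PBS washes, intracellular fluorescence measured by flow cytometry.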
# HaCAT cells = assay: Cell penetration efficiency in human epidermal (skin) cells, 4 μM, flow cytometry; type: cell-based; conditions: 4 μM FITC-conjugated CPP, one hour
# In short: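 HaCAT cells […] were grown 24 h in DMEM with 10% FBS at 37 °C, then treated 1 h with 4 μM FITC-conjugated peptide or FITC-TAT. Cells were trypsinised and washed in D-PBS. Intracellular fluorescence was read by flow cytometry.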
# monocytes = assay: Cell penetration efficiency using monocytes; type: cell-based; conditions: 4 μM FITC-conjugated CPP, one hour
# Experimental: as §1, with “II).” for “II). Macrophages were used by inducing differentiation from THP1 cells. Specifically, the THP-1 cells were aliquoted on a cover glass laid on a 24-well plate to have a density of 6×10^4 cells/well, and after the addition of 100 ng/mL of phorbol 12-myristate 13-acetate (PMA), the cells were incubated for 48 hours to induce the differentiation into macrophages. After 48 hours, the cells were washed with Dulbecco's phosphate buffered saline (DPBS) to perform an experiment.”
# HepG2 cell line = assay: Cell penetration efficiency using liver cells; type: cell-based; conditions: 4 μM FITC-conjugated CPP, one hour
# Experimental: as §1, with “II).” for “II). Macrophages were used by inducing differentiation from THP1 cells. Specifically, the THP-1 cells were aliquoted on a cover glass laid on a 24-well plate to have a density of 6×10^4 cells/well, and after the addition of 100 ng/mL of phorbol 12-myristate 13-acetate (PMA), the cells were incubated for 48 hours to induce the differentiation into macrophages. After 48 hours, the cells were washed with Dulbecco's phosphate buffered saline (DPBS) to perform an experiment.”
# HGB cell line = assay: Cell penetration efficiency in glioblastoma cells; type: cell-based, human; conditions: 4 μM FITC-conjugated CPP, one hour
# In short: as §2
# HDF cell line = assay: Cell penetration efficiency in skin cells (HDF); type: cell-based; conditions: 4 μM FITC-conjugated CPP, one hour
# In short: as §2
# SNU-46 cell line = assay: Cell penetration efficiency using laryngeal cells; type: cell-based; conditions: SNU-46 laryngeal cells, 4 μM FITC-conjugated CPP, one hour
# In short: as §2
# HeLa cell line = assay: Cell penetration efficiency using cervical cancer cells; type: cell-based; conditions: 4 μM FITC-conjugated CPP, one hour
# In short: as §2
# HEK293T cell line = assay: Cell penetration efficiency using kidney cells; type: cell-based; conditions: 4 μM FITC-conjugated CPP, one hour
# In short: as §2
Sequence,cell permeability compared with TAT (macrophages),cell permeability compared with TAT (HT1080 cell line),cell permeability compared with TAT (A-427 cell line),cell permeability compared with TAT (SH-SY5Y cells),Score (SH-SY5Y cells),Score/TAT (SH-SY5Y cells),cell permeability compared with TAT (HaCAT cells),cell permeability compared with TAT (monocytes),cell permeability compared with TAT (HepG2 cell line),cell permeability compared with TAT (HGB cell line),cell permeability compared with TAT (HDF cell line),cell permeability compared with TAT (SNU-46 cell line),cell permeability compared with TAT (HeLa cell line),cell permeability compared with TAT (HEK293T cell line),"cell permeability, fold of TAT (HGB cell line)"
AARIRALRRRRRRP [C72],higher cell permeability,higher cell permeability,higher cell permeability,higher cell permeability,1026,1.977,higher cell permeability,higher cell permeability,higher cell permeability,higher cell permeability,higher cell permeability,higher cell permeability,higher cell permeability,higher cell permeability,–
ARLRVILRRRHPRR [C95],higher cell permeability,higher cell permeability,higher cell permeability,higher cell permeability,2417,4.657,higher cell permeability,higher cell permeability,higher cell permeability,higher cell permeability,higher cell permeability,higher cell permeability,–,higher cell permeability,≥ 2 fold
LVPRRLRRRARRRK [C179],higher cell permeability,higher cell permeability,higher cell permeability,higher cell permeability,2076,4.000,higher cell permeability,higher cell permeability,higher cell permeability,higher cell permeability,higher cell permeability,higher cell permeability,higher cell permeability,higher cell permeability,–
WPRRRLRLRHRARR [C113],higher cell permeability,higher cell permeability,higher cell permeability,higher cell permeability,1278,2.462,higher cell permeability,higher cell permeability,higher cell permeability,higher cell permeability,higher cell permeability,higher cell permeability,higher cell permeability,higher cell permeability,–
